Data taken from US12083187B2, “Method of treatment for solid tumors containing hypoxia and/or stroma features” (Wayne State University, priority 2017, dated 2024).
Values joined by “and” are separate entries in the source; they are usually repeats but may differ in a detail not shown here. Equal values may be shown once.

Key:
[1] = system: A498 Everolimus resistant type; settings: for Combination Index (Cl) Drug + CFM4.16: A498 Everolimus resistant type, drug combined with CFM4.16, MTT, CompuSyn
Experimental: Generation of Everolimus-resistant RCC cells.
(§1) Cell Viability Assays. […] After treatment, an MTT assay was performed.
(§2) In vitro cytotoxicity assay. […] First, the cells were seeded in a 96-well multiwell plate at a density of 5×10^3 cells per well. The cells were allowed to grow in fresh culture media overnight. CAIX-positive and CAIX-negative cells were generated by parallel treatments with hypoxia and normoxia as described above. After 20 h, the medium was removed, and the wells were washed twice with PBS. […] After treatment, an MTT assay was performed.
(§3) RCC is very difficult to treat as the cells are mostly resistant to many current therapies. […] First, we determined cytotoxicity of individual drugs C4.16, Sor, and Evr in both A498. […] In order to understand the safety of combination therapy, we performed the hemolysis assay using CAIX-C4.16 and combination of CAIX-C4.16+Sor.

[2] = system: OUK262 Everolimus resistant type; test: MTT / CompuSyn combination index in Everolimus resistant OUK262 RCC cells; settings: drug combined with CFM4.16
Experimental: (§4) Cell Viability Assays. […] First, 5×10^3 cells were seeded in a 96-well plate in triplicate and allowed to grow in fresh culture media for another 24 h. Cells were then treated with respective agents for the noted doses and times. Control cells were treated with 0.1% DMSO in culture medium. After treatment, an MTT assay was performed. Briefly, 20 μL of 1 mg/ml of MTT was added to each well and cells were incubated for 2-4 h at 37° C. MTT was removed, and the resulting formazan products were dissolved by adding 50 μl DMSO/well followed by colorimetric analysis using a multi-label plate reader at 570 nm (Victor3; PerkinElmer, Wellesley, MA).
(§5) All the clinically drugs were treated in combination with CFM4.16 with a range of concentrations using MTT assay in the specified RCC cell line, and the data were feed to CompuSyn program to obtain the CI-value.

A498 wild type = settings: for Combination Index (Cl) Drug + CFM4.16: A498 wild type, non-encapsulated drug combined with non-encapsulated CFM4.16, MTT, CompuSyn, CI<1 synergistic
Experimental: as §1, §2, §3

OUK262 wild type = test: MTT / CompuSyn combination index in OUK262 wild type RCC cells; settings: drug combined with CFM4.16
Experimental: as §4, §5

Evr-res A498 tumor = settings: mouse, in vivo
Experimental: In Vivo Imaging Studies. S0456 a reactive near-infra-red fluorochrome, was covalently linked with PLNPs and used for in vivo near-IR optical imaging of selected nanoparticle formulations. The formulations were injected intravenously in female nude mice bearing tumor xenografts. The distribution and tumor targeted delivery were imaged by tracking the fluorescent output of IRDye 800® with in vivo Imaging System (see FIG. 11).
PDX animal imaging and bio-distribution of CAIX-targeted-nanoformulation. A CAIX-targeted-nanomicelles conjugated with Near-infrared dye was administered directly via iv administration to 5-weeks old NCR SCID mice and the distribution behavior in the mice was monitored at different time points after administration using an in vivo imaging system.
To ascertain core penetrating ability of CA IX-S0456 in a drug resistant tumor model, we performed three transverse sectioning of the isolated tumor after the bio-D study.

[3] = system: A498 RCC cell-derived xenografts; test: A498 RCC cell-derived xenograft efficacy study in SCID mice; assay type: in vivo, mouse; settings: intravenous, 30 mg/kg/day
Experimental: A dose of 30 mg/kg/day of this preparation was administered by intravenous (tail vein) injections for a total dose of 482 mg/kg in SCID mice bearing […]. […] In addition, after the completion of the animal experiment, tumors from treatment and control groups were dissected, and cryosectioned for imaging of apoptotic signs using TUNEL (Terminal deoxynucleotidyl transferase dUTP nick end labeling) and CARP-1.
For efficacy studies, after a suitable period of acclimation, a suspension of 1×10^6 A498 RCC cells in 200 μl of serum-free Hank's balanced salt solution were subcutaneously implanted in flanks of each animal using a 27-gauge needle. Tumors were allowed to grow unperturbed for 10-14 days. When tumors became palpable (200 mm^3), the mice were randomly assigned to treatment or control groups of eight animals each. […] The end points for assessing antitumor activity consisted of tumor weight, tumor growth inhibition (% T/C), and tumor cell kill Log10. Tumor weight (mg)=(A×B2)/2 where A and B are the tumor length and width (in mm), respectively. Tumor growth inhibition (T/C) was the median tumor weight in the treated group (T) when the median tumor weight in the control group reached 750 mg. Results were expressed as percentage. […] Tumor volumes were calculated by the modified ellipsoidal formula. […]

caspase-3/7 = test: Caspase 3/7 assay in Evr-res A498 cells; assay type: cell-based, human; settings: RCC cells, vs control
[4] = cited from earlier work
AKT activity (pAKT) = test: Western blot of AKT activation in WT and Evr-res A498 cells; assay type: cell-based, human; settings: vs untreated control
Experimental: Western Blot analysis. For protein expression analysis, western blot experiments were conducted. The RCC cells were treated with DMSO/Vehicle (Control) for the indicated doses and times of the noted compound, and were lysed to prepare protein extracts. Cells were harvested and lysed in RIPA buffer (50 mM Tris-HCl, pH 8.0, 150 mM sodium chloride, 1.0% NP-40, 0.5% sodium deoxycholate, 0.1% sodium dodecyl sulfate (SDS), and 0.1% of protease inhibitor cocktail) for 20 min at 4° C. The lysates were then centrifuged at 14,000 rpm at 4° C. for 15 min to remove debris. The protein concentrations of whole cell lysates were then determined using the Protein Assay Kit. Supernatant proteins, 50 μg from each sample, were separated by SDS-10% polyacrylamide gel electrophoresis (SDS-PAGE) and transferred to polyvinylidene difluoride (PVDF) membrane (Bio-Rad, Hercules, CA) by standard procedures. The membranes were hybridized with primary antibodies followed by incubation with appropriate secondary antibodies. […]
Mechanism of C4.16 for overcoming drug resistance. In this study, we determined how induction of apoptosis and inhibition of oncogenic survival signaling would reinforce the synergistic cell killing and reversal of drug resistance in VVT and Evr-res A498 cells when treated with CA IX C4.16+Sor. […]

RCC = settings: cited from earlier work; for progression free survival: RCC, clinical

CC(C)(C)c1nc(-c2cccc(NS(=O)(=O)c3c(F)cccc3F)c2F)c(-c2ccnc(N)n2)s1 [Dabrafenib]
Combination Index (Cl) Drug + CFM4.16 [1]: 0.677 | Combination Index (Cl) Drug + CFM4.16 [2]: 0.587 | Combination Index (Cl) Drug + CFM4.16 (A498 wild type): 0.1385 | Combination Index (Cl) Drug + CFM4.16 (OUK262 wild type): 0.234

CC1(C)C(/C=C/C2=C(Cl)C(=C/C=C3/N(CCCCS(=O)(=O)[O-])c4ccc(S(=O)(=O)[O-])cc4C3(C)C)/CCC2)=[N+](CCCCS(=O)(=O)[O-])c2ccc(S(=O)(=O)[O-])cc21.[Na+].[Na+].[Na+] [S0456]
tumor accumulation / selectivity (Evr-res A498 tumor): poor tumor accumulation with high off-target activity

O=C1N(Cc2ccccc2Cl)c2ccccc2C12NN=C(c1cccc(Cl)c1)S2 (stereo not drawn) [CFM-4.16]
tumor growth / tumor size [3]: failed to inhibit tumor growth | caspase-3/7 activity (caspase-3/7): induced caspase-3/7 activation | loss in body weight ([4]; 30 mg/kg/day iv, total dose 482 mg/kg, DMSO/cremophor preparation, SCID mice): < 2% and 1.6% | MTD ([4]; mouse, in vivo): 30 mg/kg | growth inhibition (in vitro cytotoxicity, comparison) [1]: more effective in inhibiting growth of WT and Evr-res A498 compared with Sor | AKT activity (pAKT) (AKT activity (pAKT)): downregulation of pAKT | growth inhibition (in vitro cytotoxicity, comparison) (A498 wild type): more effective in inhibiting growth of WT and Evr-res A498 compared with Sor

CO[C@H]1C[C@@H]2CC[C@@H](C)[C@@](O)(O2)C(=O)C(=O)N2CCCC[C@H]2C(=O)O[C@H]([C@H](C)C[C@@H]2CC[C@@H](OCCO)[C@H](OC)C2)CC(=O)[C@H](C)/C=C(\C)[C@@H](O)[C@@H](OC)C(=O)[C@H](C)C[C@H](C)/C=C/C=C/C=C/1C [Everolimus]
growth inhibition (in vitro cytotoxicity, comparison) [1]: did not inhibit growth | Combination Index (Cl) Drug + CFM4.16 [1]: 1.3 | Combination Index (Cl) Drug + CFM4.16 [2]: 1.45 | Combination Index (Cl) Drug + CFM4.16 (A498 wild type): 0.7 | Combination Index (Cl) Drug + CFM4.16 (OUK262 wild type): 0.67

O=C(c1cc(Cc2n[nH]c(=O)c3ccccc23)ccc1F)N1CCN(C(=O)C2CC2)CC1 [Olaparip]
Combination Index (Cl) Drug + CFM4.16 [1]: 1.121 | Combination Index (Cl) Drug + CFM4.16 [2]: 1.312 | Combination Index (Cl) Drug + CFM4.16 (A498 wild type): 1.0978 | Combination Index (Cl) Drug + CFM4.16 (OUK262 wild type): 0.9878

COc1cc2nccc(Oc3ccc(NC(=O)C4(C(=O)Nc5ccc(F)cc5)CC4)cc3)c2cc1OC [CB, cabozantinib]
well tolerated dose ([4]; mouse, in vivo): 60 mg/kg

Nivolumab: immune-check point inhibitor (anti-PD1) approved for RCC
response rate, higher than Evr (RCC; RCC patients): 5% | progression free survival (RCC): 32 months

CC(=O)c1c(C)c2cnc(Nc3ccc(N4CCNCC4)cn3)nc2n(C2CCCC2)c1=O [Palbociclib]
Combination Index (Cl) Drug + CFM4.16 [1]: 0.971 | Combination Index (Cl) Drug + CFM4.16 [2]: 1.0023 | Combination Index (Cl) Drug + CFM4.16 (A498 wild type): 0.7 | Combination Index (Cl) Drug + CFM4.16 (OUK262 wild type): 0.897

CNC(=O)c1cc(Oc2ccc(NC(=O)Nc3ccc(Cl)c(C(F)(F)F)c3)cc2)ccn1 [Sorafenib]
progression free survival (RCC): 12 months | AKT activity (pAKT) (AKT activity (pAKT)): downregulation of pAKT
